This passage reports MIC results from ChEMBL document CHEMBL3286182, “4-aminoquinolone piperidine amides: noncovalent inhibitors of DprE1 with long residence time and potent antimycobacterial activity” (J Med Chem, 2014).

Structures are written as SMILES. In brackets after ≈: the same amount, converted by molar mass. Some results are limits rather than exact numbers.

Common to all, as to assay type: functional
For assay [1], the system named is Mycobacterium tuberculosis. The assay can be described thus: Antimycobacterial activity against BTZ043-resistant Mycobacterium tuberculosis over expressing DprE1 C387S mutant after 5 days by standard microdilution method. (In broth dilution the organism is exposed to a series of concentrations in liquid medium.)
For assay [2], the system named is Mycobacterium tuberculosis. The experiment in a line: Antimycobacterial activity against moxifloxacin-resistant Mycobacterium tuberculosis clone 4.1 over expressing DprE1 mutant after 5 days by standard microdilution method.
The test system of assay [3] is Mycobacterium tuberculosis. The assay can be described thus: Antimycobacterial activity against Mycobacterium tuberculosis over expressing DprE1 Y314H mutant after 5 days by standard microdilution method.
Assay [4] concerns Mycobacterium tuberculosis. The assay can be described thus: Antimycobacterial activity against TMC207R-resistant Mycobacterium tuberculosis clone 8.1 over expressing DprE1 mutant after 5 days by standard microdilution method.

Turning to `Cn1ncc(C(=O)N2CCC(Nc3cc(=O)[nH]c4ccccc34)CC2)c1Cl`, the MIC in assay [1] worked out at 100 µM (≈ 38.6 µg/mL); in assay [2] it was 1.6 µM (≈ 0.617 µg/mL); in assay [3] it was 100 µM (≈ 38.6 µg/mL); in assay [4] it was 3.1 µM (≈ 1.2 µg/mL).

In the case of `Cn1ncc(C(=O)N2CCC(Nc3cc(=O)[nH]c4ccc(F)cc34)CC2)c1Cl`, the MIC in assay [1] amounted to 25 µM (≈ 10.1 µg/mL); in assay [2], 1.6 µM (≈ 0.646 µg/mL); in assay [3] it was 25 µM (≈ 10.1 µg/mL); in assay [4] it was 1.6 µM (≈ 0.646 µg/mL).

`Cn1ncc(C(=O)N2CCC(Nc3cc(=O)[nH]c4cc(F)c(F)cc34)CC2)c1Cl`: the minimum inhibitory concentration (MIC) in assay [1] was 3.12 µM (≈ 1.32 µg/mL); in assay [2] it was 0.2 µM (≈ 0.0844 µg/mL); in assay [3], 50 µM (≈ 21.1 µg/mL); in assay [4], 0.2 µM (≈ 0.0844 µg/mL).

`Cn1ncc(C(=O)N2[C@@H]3CC[C@H]2C[C@@H](Nc2cc(=O)[nH]c4ccc(F)cc24)C3)c1Cl`: the MIC in assay [1] was 1.56 µM (≈ 0.671 µg/mL); in assay [3] it was <0.39 µM.

In the case of `Cc1onc(C(=O)N2CCC(Nc3cc(=O)n(C)c4cc(F)c(F)cc34)CC2)c1C`, the MIC in assay [1] was 6.25 µM (≈ 2.6 µg/mL); in assay [3], <25 µM.

On to `C[C@H]1C[C@H](Nc2cc(=O)[nH]c3cc(F)c(F)cc23)CCN1C(=O)c1cnn(C)c1Cl`, for which the values for the MIC in assay [1] and in assay [3] were 6.25 µM (≈ 2.72 µg/mL) and 0.78 µM (≈ 0.34 µg/mL), respectively.

Take `COc1nc2ccc(Br)cc2cc1[C@@H](c1ccccc1)[C@@](O)(CCN(C)C)c1cccc2ccccc12` [BEDAQUILINE]: the MIC in assay [1] was determined as 0.4 µM (≈ 0.222 µg/mL); in assay [2] it was 1.6 µM (≈ 0.889 µg/mL); in assay [4] it was 50 µM (≈ 27.8 µg/mL).

For the molecule `C[C@H]1COC2(CCN(c3nc(=O)c4cc(C(F)(F)F)cc([N+](=O)[O-])c4s3)CC2)O1` [BTZ-043], the minimal inhibitory concentration (MIC) in assay [1] stood at 25 µM (≈ 10.8 µg/mL); in assay [2], 0.003 µM (≈ 0.00129 µg/mL); in assay [4], 0.002 µM (≈ 0.000863 µg/mL).

With `NNC(=O)c1ccncc1` [ISONIAZID], the MIC in assay [1] is 0.45 µM (≈ 0.0617 µg/mL); in assay [2], 0.45 µM (≈ 0.0617 µg/mL); in assay [4], 0.23 µM (≈ 0.0315 µg/mL).

In assay [1], `COc1c(N2C[C@@H]3CCCN[C@@H]3C2)c(F)cc2c(=O)c(C(=O)O)cn(C3CC3)c12` [MOXIFLOXACIN] registered an MIC of 0.08 µM (≈ 0.0321 µg/mL).

The term MIC denotes the lowest concentration that inhibits growth of the organism. Higher therefore signals a need for much substance.
